Like-named read-outs stand apart in the source and are kept apart here.
Tests used:
[1] = test system: HEK293T; experiment: HEK293T 72 h cytotoxicity (CellTiter-Glo); format: cell-based, human
Experimental: (§1) Two mammalian cell lines were used for counter-screening for general cytotoxicity of hit compounds: human embryonic kidney cells (HEK293T; ATCC CRL-3216) and human hepatocellular carcinoma cells (HepG2; ATCC HB-8065). […] Compounds were pre-spotted into tissue culture-treated white solid-bottomed 1536-well plates (Greiner) in a 1:3 dose-response dilution (top concentration 20 μM). HEK293T and HepG2 cells were diluted to 75×10^3 cells/mL and 150×10^3 cells/mL, respectively, and 5 μL/well were dispensed into assay plates with a MultiFlo FX Multi-Mode Dispenser (Biotek). […] At the completion of the assay, CellTiter-Glo (Promega) was prepared at 1:2 (reagent:water) of the manufacturer’s instructions, and 2 μL were dispensed into each well. After a 5 min incubation at room temperature, luminescence readings were measured with an EnVision Multilabel Plate Reader (Perkin Elmer). […] were uploaded into Genedata Screener (v13.0-Standard), and data normalized to DMSO- and puromycin-treated wells. A four-parameter non-linear regression curve fit was applied to dose-response data using Genedata to determine the half maximal cytotoxic concentration (CC50) of each compound.

[2] = test system: HepG2; experiment: HepG2 72 h cytotoxicity (CellTiter-Glo); format: cell-based, human
Experimental: as §1

[3] = test system: HCT-8 (Host cells); experiment: in vitro
Experimental: (§2) Cells were then plated (5 μL/well) into 1536-well assay plates at a density of 5.5×10^5 cells/mL (2,750 cells/well).
(§3) Plates were then washed twice with phosphate buffered saline (PBS). […] To prevent non-specific binding, the cells were blocked with SuperBlock™ T20 blocking agent (Thermo) for 1 h at room temperature. Cryptosporidium parasites were stained with 1 μg/mL fluorescein isothiocyanate (FITC)-conjugated Vicia villosa lectin (Vector Laboratories) in 1:10 diluted SuperBlock™ in PBS-T, supplemented with 3 μM 4',6-diamidino-2-phenylindole (DAPI) to visualize host cell nuclei. Staining was for 1 h at room temperature in the dark. Finally, cells were washed twice with PBS-T and the plates were sealed with adhesive foil. The plates were imaged with a CellInsight CX5 High Content Screening Platform (Thermo) with a 10× objective. […] For 1536-well format assays (primary screening, triplicate reconfirmation, and dose-response reconfirmation, one microscopic field (802,511.39 μm^2) per well, and for the 384-well washout assay, 4 fields per well were captured. The software identified primary objects (HCT-8 host cells) and spots within allowed distances to the nuclei (Cryptosporidium). Both cytotoxicity against HCT-8 cells (number of nuclei relative to DMSO-treated controls) and Cryptosporidium inhibition (spot counts relative to DMSO-treated controls) were assessed.
(§4) Images were processed by the HCS Studio Scan software, and Selected Object Count (HCT-8 cells) and Spot Count (Cryptosporidium) were analyzed in Genedata Screener (v13.0-Standard). Spot Count and Selected Object Count were normalized to neutral controls minus inhibitors (floxuridine for Spot Count, and puromycin for Selected Object Count). For single-point primary assay plates, an additional run-wise median correction was applied to reduce screen artifacts (e.g. uneven dispense), whereas no correction was applied to triplicate reconfirmation and dose-response plates. For primary screening, a compound is considered a hit by a ≥ 70% reduction in Corrected Spot Count. Compounds that caused moderate cytotoxicity were filtered out (i.e., excluding all Corrected Selected Object Counts ≤ -60%). Dose-response curves were fit with Genedata Analyzer using the Smart Fit function.

[4] = test system: Cryptosporidium hominis (TU502); experiment: C. hominis proliferation in HCT-8 cells, 48 h high-content imaging assay; format: cell-based; conditions: read-out: C. hominis 48H Assay EC50 [µM] (SD; n)
Experimental: Methods for continuous, in vitro cultivation of Cryptosporidium spp. have not been well established. Instead, in vivo oocyst propagation of C. parvum is performed in calves, a more promiscuous Cryptosporidium species for animal and human infections. For C. hominis, gnotobiotic piglets are the primary means of propagation. The calf is the more accessible model, making C. parvum the more convenient species to screen. However, C. hominis is equally clinically relevant with regards to human cryptosporidiosis. […] High purity powders of the 10 filtered C. parvum Bioactives screen hits and both GHCDL screen hits were tested against C. hominis (TU502) to confirm activity against both species.
as §2
C. parvum oocysts (Iowa strain, isolated from infected calves) were purchased from the Sterling Parasitology Laboratory, University of Arizona, and stored at 4°C for ≤ 3 months in an antibiotic solution (0.01% Tween 20 containing 100 U/mL penicillin and 100 μg/mL gentamicin). C. hominis oocysts (TU502, isolated from gnotobiotic piglets) were purchased from the Tzipori Laboratory, Cummings School of Veterinary Medicine, Tufts University, and stored at 4°C for ≤ 2 weeks in an antibiotic solution (100 U/mL penicillin and 100 μg/mL streptomycin). For infection of assay plates, 24 h after cell seeding, oocysts were excysted and prepared for inoculation as previously described. Briefly, the oocysts were diluted into 1 mL pre-warmed 10 mM HCl and then incubated in a 37°C water bath for 10 min. Oocysts were then pelleted at 3,000×g for 1 min in a microcentrifuge (Thermo), and the supernatant was carefully aspirated. Oocysts were resuspended in 2 mM sodium taurocholate in DPBS++ (with 0.9 mM CaCl2 and 0.5 mM MgCl2) and incubated at room temperature for 20 min. After incubation in bile salts, the oocysts were diluted 1:100 and free sporozoites and intact oocysts were enumerated to determine the percentage of excystation.
Plates were then washed twice with phosphate buffered saline (PBS). […] To prevent non-specific binding, the cells were blocked with SuperBlock™ T20 blocking agent (Thermo) for 1 h at room temperature. Cryptosporidium parasites were stained with 1 μg/mL fluorescein isothiocyanate (FITC)-conjugated Vicia villosa lectin (Vector Laboratories) in 1:10 diluted SuperBlock™ in PBS-T, supplemented with 3 μM 4',6-diamidino-2-phenylindole (DAPI) to visualize host cell nuclei. Staining was for 1 h at room temperature in the dark. Finally, cells were washed twice with PBS-T and the plates were sealed with adhesive foil. The plates were imaged with a CellInsight CX5 High Content Screening Platform (Thermo) with a 10× objective. […] The software identified primary objects (HCT-8 host cells) and spots within allowed distances to the nuclei (Cryptosporidium). Both cytotoxicity against HCT-8 cells (number of nuclei relative to DMSO-treated controls) and Cryptosporidium inhibition (spot counts relative to DMSO-treated controls) were assessed.
Images were processed by the HCS Studio Scan software, and Selected Object Count (HCT-8 cells) and Spot Count (Cryptosporidium) were analyzed in Genedata Screener (v13.0-Standard). Spot Count and Selected Object Count were normalized to neutral controls minus inhibitors (floxuridine for Spot Count, and puromycin for Selected Object Count).

[5] = test system: Cryptosporidium parvum; experiment: C. parvum proliferation in HCT-8 cells, 48 h high-content imaging assay; format: cell-based, Cryptosporidium parvum (Iowa strain); conditions: for EC50: 48 h; for EC99 against C. parvum: concentration used in washout assay
[6] = HEK293T 72 h cytotoxicity (CellTiter-Glo); format: cell-based, human; conditions: human
Experimental: as §1

[7] = HepG2 72 h cytotoxicity (CellTiter-Glo); format: cell-based, human; conditions: human
Experimental: as §1

[8] = HCT-8 host cell cytotoxicity, 48 h (nuclei count); conditions: human
Experimental: as §2, §3, §4

[9] = test system: C. parvum; experiment: Washout assay: 3-h treatments over the asexual life cycle of C. parvum
Experimental: We examined short, three-hour compound treatments of in vitro cultures, followed by compound washout, that covered the complete asexual life cycle, believed to be 13–15 h post invasion [36]. […] The treatment interval lasted 3 h before washout with fresh medium; infected cells were allowed to grow until 48 h post infection before fixation. […] As CFZ is very lipophilic, we sought to determine whether intracellular accumulation was affecting the strong inhibition across each time point.
Infected cells were treated in six 3-h increments over the course of 15 h (the presumed in vitro asexual lifecycle of C. parvum). HCT-8 cells were seeded (25 μL/well) into clear-bottomed 384-well plates (Greiner) at a density of 6.0×10^5 cells/mL (15,000 cells/well) in assay medium, and allowed to grow 24 h at 37°C with 5% CO2 in a humidified tissue culture incubator, covered with a custom metal lid (The Genomics Institute of the Novartis Research Foundation) to reduce evaporation. After 24 h, and 2 h before infecting with C. parvum oocysts (time -2 hpi), the treatment time course was initiated. […] DMSO was used as a negative control. Cell medium was removed from designated wells and replaced with medium containing either compound or DMSO. […] Plates were then spun at 150×g for 3 min, and kept at 37°C with 5% CO2 in a humidified tissue culture incubator during drug treatment intervals. At the end of each 3 h time point, infected cells were carefully washed three times with fresh, pre-warmed assay medium, and the next set of wells for the subsequent time point were treated. The final time point extended to 18 h, to cover re-invasion of merozoites into new HCT-8 cells. After the final compound treatment was washed off, infected cells were allowed to grow until 48 h post infection.

[10] = test system: C. parvum; experiment: Host cell 3-h pre-treatment, with or without wash, then C. parvum infection; format: cell-based, Cryptosporidium parvum; conditions: for EC50: Cryptosporidium parvum, host cells pretreated 3 h, C. parvum, 48 hpi
Experimental: A set of parallel wells were also treated and not washed prior to infection. 48 hpi, infected cells were imaged as described above, and EC50s for each compound pre- and post-wash were determined.

[11] = in HCT-8 cells, 48 h, value (SD; n)
[12] = in HCT-8 cells, value (SD; n), read-out: C. parvum 48H Assay EC50 [µM] (SD; n)
[13] = HEK293T cells, 72 h, value (SD; n), read-out: HEK293T 72H Cytotoxicity CC50 [µM] (SD; n)
[14] = HepG2 cells, 72 h, value (SD; n), read-out: HepG2 72H Cytotoxicity CC50 [µM] (SD; n)
[15] = Cryptosporidium hominis, in HCT-8 cells, 48 h, value (SD; n)
[16] = Cryptosporidium parvum, in HCT-8 cells, value (SD; n), read-out: C. parvum 48H Assay EC50 [µM] (SD; n)
[17] = 72 h, value (SD; n), read-out: HEK293T 72H Cytotoxicity CC50 [µM] (SD; n)
[18] = 72 h, value (SD; n), read-out: HepG2 72H Cytotoxicity CC50 [µM] (SD; n)
[19] = Cryptosporidium parvum, HCT-8 cells, read-out: EC50 against C. parvum
[20] = read-out: HCT-8 (Host cells) 48H Assay CC50 [µM] (SD; n), 48 h, value (SD; n)

Molecule | EC50 [4, 11] [µM] | EC50 [5, 12] [µM] | CC50 at 72 h [6, 13] [µM] | CC50 at 72 h [7, 14] [µM] | CC50 at 48 h ([8]; HCT-8 cells) [nM] | EC50 [4, 15] [µM] | EC50 [5, 16] [µM] | EC50 [5, 19] [µM] | other results
Momelotinib [Momelotinib; CYT-387] | 0.389 | 0.37 |  |  |  |  |  |  | CC50 [1]: 19 µM; CC50 [2]: 7.76 µM; CC50 [3]: 6.05 µM
Oc1ccc(Cl)cc1NC(S)NC(O)c1cccc(Br)c1 (stereo not drawn) [NSC215721] |  |  | > 20 | > 20 | > 12500 | 0.176 | 0.278 |  | 
COc1cc(Nc2ncc(F)c(Nc3ccc4c(n3)NC(O)C(C)(C)O4)n2)cc(OC)c1OC (stereo not drawn) [R406] |  |  | > 20 | 0.596 | > 12500 | 0.647 | 0.254 |  | 
CC[C@@]1([C@@H]2O[C@@H]([C@H]3O[C@@](O)(CO)[C@H](C)C[C@@H]3C)C[C@@H]2C)CC[C@H]([C@]2(C)CC[C@]3(C[C@H](O)[C@@H](C)[C@@H]([C@@H](C)[C@@H](OC)[C@H](C)C(=O)O)O3)O2)O1 [Monensin sodium] |  |  |  |  |  |  | 0.00704 | 0.007 | CC50 at 72 h [6, 17]: 0.516 µM; CC50 at 72 h [7, 18]: 1.65 µM; CC50 at 48 h [8]: > 12500 nM; EC50 ([4]; Cryptosporidium hominis, HCT-8, 48 h): 0.0103 µM
Puromycin | 0.742 | 0.482 |  |  |  |  |  |  | CC50 [1, 17]: 0.519 µM; CC50 [2, 18]: 1.13 µM; CC50 [3, 20]: 3.15 µM
Cn1c2ccccc2c2c3c(c4c5ccccc5n(CCC#N)c4c21)CNC3O (stereo not drawn) [Gö 6976] |  |  | 0.124 | > 20 | > 12500 | 0.00496 | 0.00245 | 0.0025 | 
Vorinostat [Vorinostat; SAHA] |  |  |  |  |  |  |  |  | CC50 [1]: 4.27 µM; CC50 [2]: 1.07 µM; CC50 [3]: 1.84 µM
Rocilinostat [Rocilinostat; ACY-1215] | 0.451 | 0.356 |  |  |  |  |  |  | CC50 [1]: 12.1 µM; CC50 [2]: 0.849 µM; CC50 [3]: 11.4 µM
OC1CCCC2Nc3nonc3NC(c3ccc(Cl)cc3Cl)C12 (stereo not drawn) [GHCDL-1] |  |  | > 20 | > 20 | > 12500 | 2.82 |  | 1.42 | 
O=c1[nH]c(=O)n([C@H]2C[C@H](O)[C@@H](CO)O2)cc1F [5-fluoro-2'-deoxyuridine; Floxuridine, 5-fluoro-2'-deoxyuridine] |  |  |  |  |  | 0.0182 | 0.0172 | 0.017 | CC50 at 72 h [6]: 0.0471 µM; CC50 at 72 h [7]: 0.214 µM; inhibition of C. parvum proliferation, every 3-h time point of the asexual life cycle ([9]; treated at EC99 for 3 h, washout, read at 48 hpi): strong inhibition of growth across all time points; CC50 at 48 h [8]: 154 nM; EC50 ([10]; read-out: Post-wash EC50): 9.4 nM; EC50 ([10]; read-out: Pre-wash EC50): 53 nM; inhibition of C. parvum proliferation after compound removal by repeated washes ([10]; host cell pre-treatment, dose-response): near equipotent inhibition; EC99 against C. parvum [5]: 0.1 µM
Nitazoxanide | 2.82 | 2.84 |  |  |  |  |  |  | CC50 [1, 17]: > 48 µM; CC50 [2, 18]: > 48 µM; inhibition of parasite growth at all time points other than 10–13 h post infection ([9]; 3-h treatment then washout, even at 3×EC99): < 60%; CC50 [3, 20]: > 10 µM; EC50 ([5]; HCT-8 cells, read-out: EC50 against C. parvum): 2.8 µM; EC99 against C. parvum [5]: 8 µM
Cc1csc(NCC(O)c2c[nH]c3ccccc23)n1 (stereo not drawn) [GHCDL-2] |  |  | > 20 | > 20 | > 12500 | 0.946 |  | 0.293 | 

Source: paper PMC5310922, “A high-throughput phenotypic screen identifies clofazimine as a potential treatment for cryptosporidiosis” (PLoS Neglected Tropical Diseases, 2017)
